pEC50: −log10 of the molar value. “And” between values parts separate entries of the source, which are not always exact repeats. Identical values can stand only once. “Also recorded” adds a separate entry of the source.
Tests used:
[1] = test system: A. gambiae mouthpart ATP-sensitive receptor; assay: Electrophysiological response to 200 pM ATP with PR antagonist admixed; assay type: cell-based, Anopheles gambiae; details: for ID50/ID95: block at maximum dose tested: admixed to 200 pM ATP
Description: (§1) The tip recording method was used to record action potentials (spikes) from sensory cells in sensilla on A. gambiae labellum lobes.
(§2) Sensilla were exposed to test compounds and PR antagonists for ca. 2-4 s and spikes were counted in the first 2 s of recordings. Up to 4 test compounds were tested on a sensillum to evaluate potential agonists, each presented at 200 pM. To study responses as a function of dose for agonists ATP, adenosine, AMP, AMP-CPP and ATP+adenosine, up to 7 recordings were made at increasing doses of agonist from the same sensillum. Unless otherwise stated, recordings were made throughout from 4 to 16 sensilla from individual 4-6-day-old females per dose of agonist, antagonist and metal ion modulator. For example, a response curve established over 6 doses of an antagonist using 8 sensilla per dose involved recording from a sensillum of 48 separate mosquitoes. A given dose of a PR antagonist or metal ion modulator was only presented once to a sensillum. Two-second recordings were imported as ASCII files into DataView software for analysis of spike amplitude. Differences in spike amplitude generated by stimulation of one 8v sensillum/female with 1 mM sucrose (n=294 spikes from 6 females) 200 pM adenosine (n=207 spikes from 7 females) and 200 pM ATP (n=192 spikes from 7 females) were compared by measuring the spike amplitude in mV between the highest point of depolarisation and the lowest point of hyperpolarisation.
Pairwise comparisons of A. gambiae electrophysiological (EP) responses to ATP and adenosine alone and combined with a given dose of PR antagonist, EP responses to ATP alone and combined with a given dose of a metal modulator, and EP responses to ATP prior to and after exposure of a sensillum to a given dose of a PR antagonist were made with a one-tailed Wilcoxon signed-rank test for data showing a non-normal distribution, with a paired Student's t-test for normally distributed data showing homogeneous variance and with a Welch's t-test for normally distributed data showing non-homogeneous variance. Effects on feeding of adding ATP, AMP-CPP, adenosine, ATP+adenosine, AMP and ADP-βS, CPT with ATP or adenosine, TMP with ATP+adenosine, TMP+CPT with ATP+adenosine to the FS for A. gambiae, and of adding PR antagonists with ATP to the FS for A. stephensi were compared using one-tailed Mann-Whitney U-test or Welch's t-test, depending on data distribution; Holm's FWEC was applied where treatment comparisons involved the same positive control. Percent feeding inhibition induced by PR antagonists in A. stephensi was calculated using Abbott's formula.
Dose-response models fitted to mosquito data were generated using the ‘drm’ command in the “drc” R package (version 2.5-12). Best fitting models (goodness of fit) and effects of dose of a compound were assessed using, respectively, ‘modelFit’ and ‘noEffect’ functions in the same R package. A 3-parameter logistic model (L3) was fitted to spike-counts recorded to increasing doses of adenosine, AMP, ATP and AMP-CPP. Spike numbers recorded in response to 200 pM ATP with increasing doses of PR antagonists added were analysed using a 4-parameter log-logistic model (LL.4) for A-317491 and spinorphin, using a 4-parameter Weibull model (W1.4) for PPADS, RB-2 and TMP, and using a 3-parameter log-logistic model (LL.3) for suramin. An L3 model was fitted to proportions of females feeding on increasing doses of ATP. Feeding rates on 20 μM ATP with increasing doses of a PR antagonist added were analysed using a 4-parameter log-logistic model (LL.4) with the median of the positive control (20 μM ATP) fixed as the upper asymptote. Response dynamics in 3-parameter models are related to the slope b, the upper asymptote, and inflexion point of the model e (the ED50 value), whereas 4 parameter models also include the lower asymptote parameter. […]

A. gambiae = assay: Membrane feeding assay, A. gambiae; assay type: in vivo, Anopheles gambiae; details: for % fed mosquitoes (mean ± s.e.m.), ATP + antagonist: antagonist 20 μM + 20 μM ATP; for feeding inhibition at maximum dose tested: maximum dose 20 μM, with 20 μM ATP
Description: Experiments with A. gambiae and A. stephensi were made in a climate chamber at 28° C. and 80% RH during the last 6 hours of scotophase. As a sugar meal can interfere with the blood meal by reducing the number of females that feed, the sucrose solution supplied in rearing cages to mosquitoes employed for feeding experiments was reduced to 5%. […] The 5% sucrose solution was presented to mosquitoes from emergence on four 1 cm diam. cotton dental rolls (Hartmann A G, Neuhausen, Switzerland) inserted in 10 ml upturned glass vials placed in holes at each corner of the rearing cage ceiling. Cotton rolls were turned daily in vials and renewed every two days. Mosquitoes were not fed blood and were deprived of sucrose 17 to 20 hours before experiments. Thirty min before a feeding experiment, between 10-25, 6-day-old females that responded to activation by human breath were removed with a mouth aspirator from the rearing cage wall and placed in polystyrol cylinders with the floor cut out (10 cm dm×15 cm high; Semadeni, Ostermundigen, Switzerland) that served as feeding cages. Each cage was covered with mosquito netting at one end and a soft polyurethane lid at the other.
Mosquitoes were fed for 30 min using a feeding system (Hemotek®, Hemotek Ltd, Blackburn, UK) consisting of 3.5 ml stainless steel reservoirs 37 mm in diameter covered with a 60-90 μm thick silicone-impregnated membrane (Kröber and Guerin, 2007 in “Feeding assays for hard ticks”, Trends in parasitology 23, 445-449; doi 10.1016/j.pt.2007.07.010). Feeding reservoirs reached a temperature of 37° C. within 10 min and were placed on the netting of feeding cages. Mosquitoes were activated using a 200 ms pulse of pure CO2 (volume 6.25 ml) from a pressurised cylinder (Carbagas, Switzerland) using a solenoid valve that caused the CO2 level in the feeding cage to rise to at least 1,500 ppm. Between 3 and 4 sets of 10 feeding cages held in a custom-built Ertacetal® POM frame were tested per day, depending of the number of female mosquitoes available from the colony.
All compounds were tested in a mosquito feeding solution (FS) consisting of 25 mM dextrose, 25 mM NaCl buffered with 8.93 mM NaHCO3 adjusted to pH 7.4. Feeding responses of A. gambiae and A. stephensi to ATP as a function of dose were tested with between 7 to 10 feeding cages per dose. Each feeding experiment with an antagonist systematically included a treatment containing the FS as negative control along with a treatment containing the FS with […] added as positive control for A. gambiae and with […] added as positive control for A. stephensi. These positive and negative controls permitted to monitor any effect of experimental day on feeding responses as a function of dose for antagonists that were recorded over several days. […] Four to 10 cages each with 10 to 29 mosquitoes were tested per antagonist dose. […] The number of feeding cages used to test other compounds and their mixtures as feeding stimulants or as feeding inhibitors is listed on Table 6. The percentage of fed mosquitoes was estimated by visual inspection of abdominal distention that is indicative of engorgement.
Pairwise comparisons of A. gambiae electrophysiological (EP) responses to ATP and adenosine alone and combined with a given dose of PR antagonist, EP responses to ATP alone and combined with a given dose of a metal modulator, and EP responses to ATP prior to and after exposure of a sensillum to a given dose of a PR antagonist were made with a one-tailed Wilcoxon signed-rank test for data showing a non-normal distribution, with a paired Student's t-test for normally distributed data showing homogeneous variance and with a Welch's t-test for normally distributed data showing non-homogeneous variance. […]

[2] = test system: A. gambiae labellum sensilla (purine-sensitive cell); assay: Tip recording of action potentials from A. gambiae labellum sensilla in response to agonists; assay type: cell-based, Anopheles gambiae; details: for pEC50: Anopheles gambiae, read-out: ED50 (the source's name); for pEC50 / ED95 / dose at which the unsurmountable asymptote is reached: spike frequency as a function of dose; for spikes recorded at the asymptote: at 250 pM; for Mean spike frequency per 2 s (±SEM): each compound at 200 pM alone and in binary mixtures, T1 labellum sensilla
Description: as §1, §2
Spike counts elicited by 200 pM doses of nucleotides, nucleosides, purines, pyrimidines and water were log(x+1.25)-transformed (optimal constant numerically established using a maximum likelihood procedure) and analysed using a linear mixed effects model (function ‘lme’ in “nlme” R package) with mosquito number as random effect. To model inhomogeneous variance in residuals (near normal distribution, P=0.045, Shapiro-Wilk test, W=0.98604), the variance function ‘varldent’ in the “nlme” package that allows for different variance per treatment was used. Statistical differences were identified between treatments using post-hoc-Tukey test with contrasts adjusted by Holm's family wise error compensation (FWEC). Spike counts elicited by ATP, AMP, adenosine and their binary mixtures were analysed using a generalised linear model (LM) of log (x+10) transformed data and differences were identified using post-hoc-Tukey test with Holm's FWEC.
Log transformed spike amplitudes generated in response to ATP, adenosine and sucrose were compared using linear mixed effects models using the ‘lme’ function of the “nlme” R package, with spike amplitude as the dependent variable, treatment as the fixed factor and mosquito number within treatment as random effect. Residuals were normally distributed (Shapiro-Wilk test P>0.0563) and their variances homogeneous (Bartlett test P>0.9799); P-values were corrected using Holm's FWEC.
Dose-response models fitted to mosquito data were generated using the ‘drm’ command in the “drc” R package (version 2.5-12). Best fitting models (goodness of fit) and effects of dose of a compound were assessed using, respectively, ‘modelFit’ and ‘noEffect’ functions in the same R package. A 3-parameter logistic model (L3) was fitted to spike-counts recorded to increasing doses of adenosine, AMP, ATP and AMP-CPP. Spike numbers recorded in response to 200 pM ATP with increasing doses of PR antagonists added were analysed using a 4-parameter log-logistic model (LL.4) for A-317491 and spinorphin, using a 4-parameter Weibull model (W1.4) for PPADS, RB-2 and TMP, and using a 3-parameter log-logistic model (LL.3) for suramin. An L3 model was fitted to proportions of females feeding on increasing doses of ATP. Feeding rates on 20 μM ATP with increasing doses of a PR antagonist added were analysed using a 4-parameter log-logistic model (LL.4) with the median of the positive control (20 μM ATP) fixed as the upper asymptote. […]

SMILES: Cc1nc(N=Nc2ccc(C(=O)O)cc2)c(COP(=O)(O)O)c(C=O)c1O [MRS 2159, [2-[(4-carboxyphenyl)diazenyl]-4-formyl-6-methyl-5-oxidopyridin-3-yl]methyl phosphate]
- Mean no. of spikes per 2 s (±s.e.m.), ATP + antagonist ([1]; antagonist 1000 nM + 200 pM ATP): 27.14 spikes per 2 s
- ID50/ID95: block at maximum dose tested ([1]; maximum dose 1 μM): No block (1 μM)
- % fed mosquitoes (mean ± s.e.m.), ATP + antagonist (A. gambiae): 79.19%
- feeding inhibition at maximum dose tested (A. gambiae): No feeding inhibition

SMILES: Nc1ncnc2c1ncn2[C@@H]1O[C@H](CO)[C@@H](O)[C@H]1O [Adenosine, 9-β-D-Ribofuranosyladenine]
- spike frequency ([2]; 50 pM alone, mixture 50 pM of each agonist): 1.25±0.62 /2s
- EP response, spike frequency ([2]; 200 pM): 30.23±3.02 spikes/2s
- pEC50 [2]: ~9.92
- spikes recorded at the asymptote [2]: approximately 30 spikes/2 s
- Mean spike frequency per 2 s (±SEM) [2]: 27.14 per 2 s
- ED95 [2]: ~0.2 nM
- dose at which the unsurmountable asymptote is reached [2]: 250 pM
- % Engorged mosquitoes (A. gambiae; 20 μM in feeding solution): 39.1 ± 5.7%
- % Engorged mosquitoes (A. gambiae; 1 mM in feeding solution): 64.4 ± 3.2%

SMILES: Nc1ncnc2c1ncn2[C@@H]1O[C@H](COP(=O)(O)OP(=O)(O)O)[C@@H](O)[C@H]1O [ADP, Adenosine 5′-diphosphate]
- EP response in words ([2]; 200 pM): no activity; also recorded: failure

SMILES: Nc1ncnc2c1ncn2[C@H]1CC[C@@H](COP(=O)(O)OP(=O)(O)OP(=O)(O)O)O1 [ddATP, 2′,3′-Dideoxyadenosine-5′-triphosphate]
- EP response in words ([2]; 200 pM): strongly reduced activity

SMILES: Nc1ncnc2c1ncn2C1OC(COP(=O)(O)CP(=O)(O)OP(=O)(O)O)C(O)C1O (stereo not drawn) [AMP-CPP, α,β-Methyleneadenosine-5′-triphosphate]
- ED95 [2]: 0.05 nM
- dose at which the unsurmountable asymptote is reached [2]: 80 pM
- % Engorged mosquitoes (A. gambiae; 20 μM in feeding solution): 84.35% and 84.3 ± 6.8%

SMILES: Fc1ccc([C@@H]2CCNC[C@H]2COc2ccc3c(c2)OCO3)cc1 [Paroxetine, (3S,4R)-3-(1,3-benzodioxol-5-yloxymethyl)-4-(4-fluorophenyl)piperidine]
- Mean no. of spikes per 2 s (±s.e.m.), ATP + antagonist ([1]; antagonist 2000 nM + 200 pM ATP): 27.6 spikes per 2 s
- ID50/ID95: block at maximum dose tested ([1]; maximum dose 2 μM): No block (2 μM)
- % fed mosquitoes (mean ± s.e.m.), ATP + antagonist (A. gambiae): 62.72%
- feeding inhibition at maximum dose tested (A. gambiae): No feeding inhibition

SMILES: Nc1ncnc2c1ncn2[C@H]1C[C@H](O)[C@@H](COP(=O)(O)OP(=O)(O)OP(=O)(O)O)O1 [dATP, 2′-Deoxyadenosine 5′-triphosphate]
- EP response in words ([2]; 200 pM): strongly reduced activity

SMILES: Nc1ncnc2c1ncn2[C@@H]1O[C@H](COP(=O)(O)O)[C@@H](O)[C@H]1O [AMP, Adenosine 5′-monophosphate]
- pEC50 [2]: ~9.92
- spikes recorded at the asymptote [2]: approximately 30 spikes/2 s
- Mean spike frequency per 2 s (±SEM) [2]: 28.58 per 2 s
- ED95 [2]: ~0.2 nM
- dose at which the unsurmountable asymptote is reached [2]: 250 pM
- % Engorged mosquitoes (A. gambiae; 20 μM in feeding solution): 38.3 ± 5.1%

Source: patent US20250057791A1, “PROTECTION AGAINST ARTHROPOD PARASITES WITH PURINERGIC RECEPTOR (OPR) ANTAGONISTS” (priority 2021, published 2025)
